Laboratory results: US20260048040A1, “MTA-COOPERATIVE PRMT5 INHIBITORS FOR USE IN THE TREATMENT OF CANCER” (ASTRAZENECA AB, priority 2022, published 2026)
Read-outs that look alike come from different tables or passages of the source.

Experiments:
[1] = test system: wild type (wt) HCT116 cells; test: Proliferation assay, HCT116 wild type cells (Alamar Blue); type: cell-based; conditions: Homo sapiens, HCT-116; HCT116, MTAP status wt, MTAP mRNA level high; average values from two or more experiments
Experimental: (§1) For the HCT116 isogenic cell line (the parental model purchased from ATCC, the MTAP KO clone generated in-house using CRISPR technology): Cells were harvested to a density of 400 cells per well (McCoys 5A+10% FCS+1% Glutamax), 40 μl/well seeded into 384-well plates (Greiner, Kremsmunster, Austria; 781090) using a Multidrop Combi. For Day 0 plates immediately add 4 μl Alamar Blue reagent (Thermo; DAL1100) using a multidrop combi and incubate for 3 h at 37° C., 5% CO2. Day 0 cell plates were measured using Envision plate reader with fluorescence excitation wavelength of 540-570 nm (peak excitation is 570 nm), fluorescence emission at 580-610 nm (peak emission is 585 nm). Test compounds were added using an Echo 555 and placed in incubator at 37° C., 5% CO2 and incubated for 4 more days. […], add 4 μl Alamar Blue reagent using a Multidrop Combi and incubate for 3 h at 37° C., 5% CO2. Day 4 cell plates were measured using EnVision plate reader with fluorescence excitation wavelength of 540-570 nm, fluorescence emission at 580-610 nm. The rate of proliferation (IC50 values) was determined using Genedata screener software by assessing the total cell number from the Envision plate reader for Day 0 and Day 4 plates.

[2] = test system: L540 cells; test: Proliferation assay, L540 Hodgkin Lymphoma cells (CellTiter Glo); type: cell-based; conditions: Homo sapiens
Experimental: (§2) For the Hodgkin Lymphoma cell lines L428, L540, L1236, HDLM2 and KM-H2 (purchased from DSMZ, http://www.dsmz.de): Assay Ready Plates were prepared by adding compounds to 384-well plates (Corning #3712) using Echo Liquid Handler. On day 0, 1200 cells/well of L428, L540, or KMH2 cells in 60 μl of growth media (RPMI1640+10% FBS+1% L-Glu+1% P/S) were dispensed into the Assay Ready Plates, 10 μM as final top concentration, with 1:3 dilution, and 10 doses total. The same volume was also dispensed into 1 empty plate for Day 0 control plate. 30 μl/well of CellTiter Glo reagent (Promega #7573) was added into Day 0 plate, incubate at room temperature for 20 min in dark, Measure luminescence on plate reader Tecan M200 using 100 ms integration time, Oms attenuation and settle times. The assay plates were incubated for 7 days in incubator with 37° C., 90% humidity, 5% CO2. Luminescence was measured as Day 0 control plate. IC50 was calculated using GraphPad Prism 8 with Nonlinear regression (curve fit) analysis.

[3] = test system: MTAP silenced L540 HL xenograft; test: Tumor growth inhibition in L540 HL xenograft model; type: in vivo, Mouse (Mus Musculus); conditions: for TGI (%): 21 days of dosing, TGI measured day 21 (end of treatment), NOD/SCID mice
Experimental: (§3) This study was performed to evaluate tumor growth inhibition and pharmacodynamic changes following treatment with the MTA synergistic PRMT5 inhibitor Compound C in the MTAP silenced L540 HL xenograft model. Three doses of Compound C (Dose Level 1, Dose Level 2 and Dose Level 3) were tested. Pharmacodynamic changes were assessed by western blot for a decrease in SDMA (marker of target engagement) following treatment with Compound C.
Xenografts were established by subcutaneous (SC) injection of 5×10^e6 cells suspended in 0.1 mL of PBS into the right front flank of 6-to 8-week-old animals. Tumors were allowed to reach 100-200 mm^3 before randomization. Tumors were measured by calliper and the volumes of tumors were calculated using the following formula: Volume (mm3)=(Tumor Length)×(Tumor width)×(Tumor width)/2 Tumor length (the longest tumor dimension); Tumor width (the longest tumor dimension perpendicular to length).
Animals were randomized into groups based on the size of the tumor. Randomization was performed based on “Matched distribution” method (StudyDirector™ software, version 3.1.399.19). The date of randomization is denoted as Day 0. There were no animal substitutions.
(§4) Control animals were dosed with vehicle (5% v/v DMSO/20% v/v Kolliphor HS15/75% v/v purified water (pH 3.0-3.2)) PO, and vehicle and Compound C treated animals were dosed according to Table 6. Dosing was initiated 1 day upon selection and randomization. On day 21 of dosing, all animals from each received the last dose in the morning. Mice were necropsied 6 h later and flash frozen tumors were collected for PD analysis.
(§5) • Tumors were measured twice weekly by caliper, and the volumes of tumors were calculated using the formula: Volume (mm^3)=(Tumor Length)×(Tumor width)×(Tumor width)/2 • Relative tumor volume (RTV) was calculated using the formula: RTV for day X=(Tumour volume on day X)/(Tumour volume on day 0) • The anti-cancer effect of Compound C was expressed as percent of tumor growth inhibition (TGI) calculated on last day of the study using the formula: • Percentage TGI on day X for treatment group=(((Geomean RTV Vehicle day X)−(Geomean RTV Treatment group day X))/((Geomean RTV Vehicle on day X)−1)×100 • Animals were weighted daily for the dosing phase and twice weekly for all other phases. Percentage of body weight change was calculated using the formula: Percentage body weight change on day X=(((Body weight day X)−(Body weight day of select)×100))
Tumor volumes were plotted as geometric means with SEM. Percentage of body weight change was plotted as means with SEM. Significant p-values for TGI relative to vehicle treated controls (relative tumor volumes) at the last day of treatment, were obtained from a Mann-Whitney one-tailed test, and calculated by GraphPad Prism 8.4.3

[4] = Tolerability / body weight in L540 HL xenograft model; type: in vivo, Mouse (Mus Musculus); conditions: all doses tested, PO, 21 days
Experimental: as §4, §5
Tumor volumes were plotted as geometric means with SEM. Percentage of body weight change was plotted as means with SEM. […]

[5] = test system: L1236 cells; test: Proliferation assay, L1236 Hodgkin Lymphoma cells (CellTiter Glo); type: cell-based
Experimental: as §2

[6] = test system: L428 cells; test: Proliferation assay, L428 Hodgkin Lymphoma cells (CellTiter Glo); type: cell-based; conditions: Homo sapiens
Experimental: as §2

[7] = test system: SDMA (marker of target engagement); test: Pharmacodynamic analysis: SDMA western blot in L540 xenograft tumors; type: in vivo, Mouse (Mus Musculus); conditions: tumors collected 6 h after last dose on day 21, western blot normalized to vinculin
Experimental: as §3, §4
To determine levels of protein of interest in tumor samples, snap frozen tumor fragments at the end of the PD study were used and protein extracted by adding 600-1000 μl lysis buffer for small and large tumors, respectively. […] Lysates were transferred to a deepwell plate, and protein in the supernatant measured using BCA normalisation method (Thermofisher, #23225). […] The membranes were washed three times for 15 minutes each in 20 ml of TBST, and signal was detected using chemiluminescent SuperSignal West Dura extended duration substrate (Thermofisher, #34075) and quantified using Syngene software. The 30 kDa molecular weight band of PRMT5's substrate, SDMA, was quantified using Syngene software. The 110 kDa molecular weight band of vinculin was also quantified. […]
Primary analysis was carried out using Excel, where raw data was firstly normalised to vinculin, secondly to the geomean of vehicle control and then multiplied by 100. […] Significant p-values, if any, obtained from the ANOVA test, were quantified using GraphPad Prism 8.4.3.

[8] = test system: HDLM2 cells; test: Proliferation assay, HDLM2 Hodgkin Lymphoma cells (CellTiter Glo); type: cell-based; conditions: Homo sapiens
Experimental: as §2
Alternatively, for HDLM2 (purchased from DSMZ): Cells were grown as […] cells in growth media (phenol red free RPMI+10% FCS+2 mM glutamine). Cells were seeded into 96-well clear-bottomed black tissue-culture treated plates at 1000 cells/well in 90 μl growth media and placed in an incubator at 37° C., 5% CO2. Compound was obtained in solution from the liquid bank at a concentration of 10 mM in DMSO then half-log serial dilutions performed in DMSO to make ×1000 fold stock solutions. Concentrations were then diluted 1 in 10 in DMSO followed by 1 in 10 in growth media to give an addition plate at x^10 final concentration in 10% DMSO. 10 μl compound was then added to 90 μl cell (1 in 10 dilution) to give a concentration range of 0.1 nM to 10 μM in 1% DMSO. CellTiter Glo readings were taken at the point of dosing and at 6 days. […] Read luminescence on Envision F (ultrasensitive luminescence 96-well protocol with 384 well aperture). IC50 was calculated using GraphPad Prism 8 with Nonlinear regression (curve fit) analysis.

[9] = test system: MTAP knock out (KO) HCT116 cells; test: Proliferation assay, HCT116 MTAP knock out cells (Alamar Blue); type: cell-based; conditions: Homo sapiens, HCT-116; HCT116, MTAP status KO, MTAP mRNA level low; average values from two or more experiments
Experimental: as §1

[10] = L-540, L540, MTAP status wt, MTAP mRNA level low, average values from two or more experiments, read-out: IC50, proliferation
[11] = L-1236, L1236, MTAP status wt, MTAP mRNA level low, average values from two or more experiments, read-out: IC50, proliferation
[12] = L-428, L428, MTAP status wt, MTAP mRNA level high, average values from two or more experiments, read-out: IC50, proliferation
[13] = HDLM-2, HDLM2, MTAP status wt, MTAP mRNA level low, average values from two or more experiments, read-out: IC50, proliferation

| IC50 [1] | IC50 [9] | IC50 [2, 10] | IC50 [5, 11] | IC50 [6, 12] | IC50 [8, 13] | Compound | IC50 ([2]; L-540, read-out: IC50, proliferation) | TGI (%) ([3]; Dose Level 1, PO) | TGI (%) ([3]; Dose Level 2, PO) | TGI (%) ([3]; Dose Level 3, PO) | Inhibition of tumour growth in vivo (in words) ([3]; Dose Levels 1-3, PO, L540 HL xenograft) | Body weight loss during the treatment period compared to vehicle-treated group [4] | Tolerability [4] | IC50 ([5]; L-1236, read-out: IC50, proliferation) | IC50 ([6]; L-428, read-out: IC50, proliferation) | Percentage Inhibition of SDMA ([7]; Dose Level 1, PO) | Percentage Inhibition of SDMA ([7]; Dose Level 2, PO) | Percentage Inhibition of SDMA ([7]; Dose Level 3, PO) | IC50 ([8]; HDLM-2, read-out: IC50, proliferation) |
| --- | --- | --- | --- | --- | --- | --- | --- | --- | --- | --- | --- | --- | --- | --- | --- | --- | --- | --- | --- |
| 75 nM | 74 nM | 157 nM | 14 nM | 583 nM | 93 nM | CC(=O)N1CCC(Nc2cc(C(=O)NC[C@H](O)CN3CCc4ccccc4C3)ncn2)CC1 [Compound B, reference compound] |  |  |  |  |  |  |  |  |  |  |  |  |  |
| > 20000 nM | 158 nM | 247 nM | 67 nM | 2520 nM | 39 nM | Nc1nc2cc(CN3C(=O)c4cc(F)ccc4[C@]34CCN(Cc3ccc(F)cc3)C4=O)[nH]c2cc1F [Compound A, (S)-2-((5-Amino-6-fluoro-1H-pyrrolo[3,2-b]pyridin-2-yl)methyl)-5-fluoro-1′-(4-fluorobenzyl)spiro[isoindoline-1,3′-pyrrolidine]-2′,3-dione] |  |  |  |  |  |  |  |  |  |  |  |  |  |

| Compound | IC50 [1] | IC50 [9] | IC50 [2, 10] | IC50 [5, 11] | IC50 [6, 12] | IC50 [8, 13] | IC50 ([2]; L-540, read-out: IC50, proliferation) | TGI (%) ([3]; Dose Level 1, PO) | TGI (%) ([3]; Dose Level 2, PO) | TGI (%) ([3]; Dose Level 3, PO) | Inhibition of tumour growth in vivo (in words) ([3]; Dose Levels 1-3, PO, L540 HL xenograft) | Body weight loss during the treatment period compared to vehicle-treated group [4] | Tolerability [4] | IC50 ([5]; L-1236, read-out: IC50, proliferation) | IC50 ([6]; L-428, read-out: IC50, proliferation) | Percentage Inhibition of SDMA ([7]; Dose Level 1, PO) | Percentage Inhibition of SDMA ([7]; Dose Level 2, PO) | Percentage Inhibition of SDMA ([7]; Dose Level 3, PO) | IC50 ([8]; HDLM-2, read-out: IC50, proliferation) |
| --- | --- | --- | --- | --- | --- | --- | --- | --- | --- | --- | --- | --- | --- | --- | --- | --- | --- | --- | --- |
| CC#CCN1CC[C@@]2(C1=O)c1ccc(F)cc1C(=O)N2Cc1cc2nc(N)c(F)cc2[nH]1 [Compound C, (S)-2-((5-Amino-6-fluoro-1H-pyrrolo[3,2-b]pyridin-2-yl)methyl)-1′-(but-2-yn-1-yl)-5-fluorospiro[isoindoline-1,3′-pyrrolidine]-2′,3-dione] | 8540 nM | 170 nM |  |  |  |  | 252 nM | 22% | 52% | 93% | dose-dependent efficacy | no significant body weight loss | well tolerated | 77 nM | 4640 nM | 83.9% | 97.6% | 99.1% | 827 nM |
